Reference: patent US20240269139A1, “COMPOUNDS FOR TARGETED PROTEIN DEGRADATION OF KINASES” (DANA-FARBER CANCER INSTITUTE, INC., priority 2020, published 2024)
Read-outs that look alike come from different tables or passages of the source.

Columns and labels:
Format in all cases: cell-based
[1] = target: protein kinases (human kinome) (Homo sapiens, UniProt Q15119); settings: for logFC PDK2: Accession Q15119-1
[2] = target: T1, protein kinases (human kinome) (Homo sapiens, UniProt Q53H12); settings: direction down
T1 sequence (Q53H12 1-422): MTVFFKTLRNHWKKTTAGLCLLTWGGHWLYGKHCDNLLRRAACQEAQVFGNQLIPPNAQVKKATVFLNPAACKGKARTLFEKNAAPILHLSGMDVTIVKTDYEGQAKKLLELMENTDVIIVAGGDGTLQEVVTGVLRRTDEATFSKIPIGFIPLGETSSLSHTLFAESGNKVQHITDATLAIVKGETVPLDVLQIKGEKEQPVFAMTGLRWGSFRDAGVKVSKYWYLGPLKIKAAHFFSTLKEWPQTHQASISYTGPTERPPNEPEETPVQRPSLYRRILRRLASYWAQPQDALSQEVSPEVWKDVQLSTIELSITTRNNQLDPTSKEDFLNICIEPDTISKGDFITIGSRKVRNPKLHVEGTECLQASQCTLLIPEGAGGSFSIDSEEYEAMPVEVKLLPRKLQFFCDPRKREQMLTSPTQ

[3] = target: protein kinases (human kinome) (Homo sapiens, UniProt Q00537); settings: for logFC of CDK17: Accession Q00537; for logFC CDK17 (Q00537): direction of change down
[4] = target: protein kinases (human kinome) (Homo sapiens, UniProt Q14289)
[5] = target: protein kinases (human kinome) (Homo sapiens, UniProt P50613)
Chain of protein kinases (human kinome) (Homo sapiens, UniProt P50613) (P50613 whole entry): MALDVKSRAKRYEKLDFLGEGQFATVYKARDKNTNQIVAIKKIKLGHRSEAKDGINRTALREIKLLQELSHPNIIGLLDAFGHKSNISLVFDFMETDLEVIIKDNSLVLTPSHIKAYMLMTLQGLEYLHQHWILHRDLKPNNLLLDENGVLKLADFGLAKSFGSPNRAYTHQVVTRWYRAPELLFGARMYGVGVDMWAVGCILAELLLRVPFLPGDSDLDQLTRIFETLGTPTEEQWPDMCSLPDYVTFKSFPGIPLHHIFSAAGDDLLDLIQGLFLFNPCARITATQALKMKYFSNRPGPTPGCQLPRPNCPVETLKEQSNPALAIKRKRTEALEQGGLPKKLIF

Chain of protein kinases (human kinome) (Homo sapiens, UniProt Q00537) (Q00537 whole entry): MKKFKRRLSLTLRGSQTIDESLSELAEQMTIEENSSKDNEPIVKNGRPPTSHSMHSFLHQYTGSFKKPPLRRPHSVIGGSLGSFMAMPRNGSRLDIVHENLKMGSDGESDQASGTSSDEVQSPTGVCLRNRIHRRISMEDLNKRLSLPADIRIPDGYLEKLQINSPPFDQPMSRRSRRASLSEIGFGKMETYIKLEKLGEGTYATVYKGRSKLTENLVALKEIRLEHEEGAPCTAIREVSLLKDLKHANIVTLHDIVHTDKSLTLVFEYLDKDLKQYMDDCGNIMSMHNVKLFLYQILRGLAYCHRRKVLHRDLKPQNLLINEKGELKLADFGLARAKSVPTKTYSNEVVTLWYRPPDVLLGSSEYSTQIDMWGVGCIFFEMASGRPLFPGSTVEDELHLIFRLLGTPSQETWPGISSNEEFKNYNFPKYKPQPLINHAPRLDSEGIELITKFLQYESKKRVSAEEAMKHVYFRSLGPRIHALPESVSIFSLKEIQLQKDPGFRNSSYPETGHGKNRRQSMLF
Chain of protein kinases (human kinome) (Homo sapiens, UniProt Q14289) (Q14289 whole entry): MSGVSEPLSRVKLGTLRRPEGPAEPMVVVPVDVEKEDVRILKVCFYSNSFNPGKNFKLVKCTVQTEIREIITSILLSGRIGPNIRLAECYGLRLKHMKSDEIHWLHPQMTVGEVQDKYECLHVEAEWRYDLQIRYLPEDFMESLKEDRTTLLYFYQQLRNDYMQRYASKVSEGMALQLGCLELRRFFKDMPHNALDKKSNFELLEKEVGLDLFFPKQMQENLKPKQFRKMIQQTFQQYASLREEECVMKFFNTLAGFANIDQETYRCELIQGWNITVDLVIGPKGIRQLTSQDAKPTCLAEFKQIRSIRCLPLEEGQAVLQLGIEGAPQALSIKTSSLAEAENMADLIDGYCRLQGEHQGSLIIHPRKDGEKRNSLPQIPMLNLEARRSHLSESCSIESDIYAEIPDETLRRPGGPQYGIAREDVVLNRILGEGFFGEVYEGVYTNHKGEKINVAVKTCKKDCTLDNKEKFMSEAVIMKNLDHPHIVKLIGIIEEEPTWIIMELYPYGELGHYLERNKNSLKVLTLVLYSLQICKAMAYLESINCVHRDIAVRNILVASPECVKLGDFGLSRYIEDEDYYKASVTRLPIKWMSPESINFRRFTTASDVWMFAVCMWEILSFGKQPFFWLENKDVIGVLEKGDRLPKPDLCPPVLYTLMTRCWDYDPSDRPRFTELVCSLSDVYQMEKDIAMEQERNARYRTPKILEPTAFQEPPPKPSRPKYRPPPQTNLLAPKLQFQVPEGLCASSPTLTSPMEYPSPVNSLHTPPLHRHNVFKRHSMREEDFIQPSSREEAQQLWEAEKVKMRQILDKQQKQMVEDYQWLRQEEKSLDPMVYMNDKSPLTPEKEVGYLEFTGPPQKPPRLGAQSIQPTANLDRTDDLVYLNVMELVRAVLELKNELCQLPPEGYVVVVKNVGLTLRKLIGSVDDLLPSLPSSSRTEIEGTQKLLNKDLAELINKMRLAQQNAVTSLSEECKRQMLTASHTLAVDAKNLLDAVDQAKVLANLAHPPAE

CC(=O)c1c(C)c2cnc(Nc3ccc(N4CCN(CCOCCOCCOCCNC(=O)COc5cccc6c5C(=O)N(C5CCC(=O)NC5=O)C6=O)CC4)cn3)nc2n(C2CCCC2)c1=O (stereo not drawn) [BSJ.03.123]
logFC PDK2 ([1]; experiment wp084): −0.3615
logFC PDK2 (Q15119-1) ([1]; experiment wp084): −0.3615
logFC AGK (Q53H12) ([2]; Experiment wp084): −0.6506

CN(C)C(=O)c1cc2cnc(Nc3ccc(N4CCN(CCCCNC(=O)COc5cccc6c5C(=O)N(C5CCC(=O)NC5=O)C6=O)CC4)cn3)nc2n1C1CCCC1 (stereo not drawn) [BSJ.04.132]
logFC PDK2 ([1]; experiment wp084): −0.5289
logFC PDK2 (Q15119-1) ([1]; experiment wp084): −0.5289
logFC AGK (Q53H12) ([2]; Experiment wp084): −0.6709

CC(C)(C)c1nc(-c2cccc(NS(=O)(=O)c3c(F)cccc3F)c2F)c(-c2ccnc(NCCOCCNC(=O)CCOCCOCCNc3cccc4c3C(=O)N(C3CCC(=O)NC3=O)C4=O)n2)s1 (stereo not drawn) [DD.03.106]
logFC PDK2 (Q15119-1) ([1]; experiment wp147, 4 uM): −0.727
logFC AGK (Q53H12) ([2]; Experiment wp147, 2 uM): −0.346
logFC AGK (Q53H12) ([2]; Experiment wp147, 4 uM): −0.9499
logFC of CDK17 ([3]; experiment wp047): −0.72
logFC of CDK17 ([3]; experiment wp147, 1 uM): −0.7615
logFC of CDK17 ([3]; experiment wp147, 4 uM): −0.6232
logFC CDK17 (Q00537) ([3]; experiment wp047): −0.72
logFC CDK17 (Q00537) ([3]; experiment wp147, 1 uM): −0.7615
logFC CDK17 (Q00537) ([3]; experiment wp147, 2 uM): −0.8288
logFC CDK17 (Q00537) ([3]; experiment wp147, 4 uM): −0.6232

CC(C)(C)c1nc(-c2cccc(NS(=O)(=O)c3c(F)cccc3F)c2F)c(-c2ccnc(NCCOCCNC(=O)CCOCCOCCNc3cccc4c3CN(C3CCC(=O)NC3=O)C4=O)n2)s1 (stereo not drawn) [DD.03.107]
logFC PDK2 ([1]; experiment wp137): −0.3383
logFC PDK2 ([1]; experiment wp147, 1 uM): −0.4963
logFC PDK2 ([1]; experiment wp147, 2 uM): −0.5351
logFC PDK2 ([1]; experiment wp147, 4 uM): −0.9269
logFC PDK2 (Q15119-1) ([1]; experiment wp137): −0.3383
logFC PDK2 (Q15119-1) ([1]; experiment wp147, 1 uM): −0.4963
logFC PDK2 (Q15119-1) ([1]; experiment wp147, 2 uM): −0.5351
logFC PDK2 (Q15119-1) ([1]; experiment wp147, 4 uM): −0.9269
logFC AGK (Q53H12) ([2]; Experiment wp147, 1 uM): −0.7983
logFC AGK (Q53H12) ([2]; Experiment wp147, 2 uM): −0.8655
logFC AGK (Q53H12) ([2]; Experiment wp147, 4 uM): −1.343

O=C(COc1cccc2c1C(=O)N(C1CCC(=O)NC1=O)C2=O)NCCCCCCCC(=O)NC1(c2ccc(-c3nc4ccn5c(=O)[nH]nc5c4cc3-c3ccccc3)cc2)CCC1 (stereo not drawn) [INY.01.140.1]
logFC PDK2 ([1]; experiment wp081): −0.6094
logFC PDK2 (Q15119-1) ([1]; experiment wp081): −0.6094
logFC AGK (Q53H12) ([2]; Experiment wp081): −0.4936

CNC(=O)c1ccccc1Nc1cc(Nc2ccc(N3CCN(CCOCCOCCNC(=O)CNc4cccc5c4C(=O)N(C4CCC(=O)NC4=O)C5=O)CC3)cc2OC)ncc1C(F)(F)F (stereo not drawn) [MFH.5.103.1]
logFC AGK (Q53H12) ([2]; Experiment wp076): −0.3672
logFC ([4]; PTK2B (Q14289-1) protein abundance, degrader vs DMSO, down): −3.18
logFC PTK2B ([4]; PTK2B, accession Q14289-1, experiment wp076, direction of change down): −3.18
logFC ([5]; CDK7 (P50613) protein abundance, degrader vs DMSO, down): −0.5098
logFC CDK7 ([5]; CDK7 P50613, experiment wp076): −0.5098

Cc1ccc(C(=O)Nc2ccc(CN3CCN(CCCOCCOCCOCCNC(=O)COc4cccc5c4C(=O)N(C4CCC(=O)NC4=O)C5=O)CC3)c(C(F)(F)F)c2)cc1C#Cc1cnc2cccnn12 (stereo not drawn) [SB1.G.187]
logFC PDK2 ([1]; experiment wp056): −0.4016
logFC PDK2 (Q15119-1) ([1]; experiment wp056): −0.4016
logFC AGK (Q53H12) ([2]; Experiment wp056): −0.5707
logFC of CDK17 ([3]; experiment wp172): −0.3562
logFC CDK17 (Q00537) ([3]; experiment wp172): −0.3562

C=CCn1c(=O)c2cnc(Nc3ccc(N4CCN(CCCNc5cccc6c5C(=O)N(C5CCC(=O)NC5=O)C6=O)CC4)cc3)nc2n1-c1cccc(C(C)(C)O)n1 (stereo not drawn) [ZNL.02.096]
logFC PDK2 ([1]; experiment wp056): −0.5561
logFC PDK2 ([1]; experiment wp118): −0.37
logFC PDK2 (Q15119-1) ([1]; experiment wp056): −0.5561
logFC PDK2 (Q15119-1) ([1]; experiment wp118): −0.37
logFC AGK (Q53H12) ([2]; Experiment wp056): −0.5514
